Source: the supplement of paper PMC10307832

Legend:
Experiment in all cases: relative viability (nuclei count vs DMSO), 5 days (fraction); higher = more cells survive
Carboplatin + Navitoclax = compound: C1CC(C1)(C(=O)O)C(=O)O.[NH2-].[NH2-].[Pt+2] [Carboplatin] + CC1(C)CCC(c2ccc(Cl)cc2)=C(CN2CCN(c3ccc(C(=O)NS(=O)(=O)c4ccc(N[C@H](CCN5CCOCC5)CSc5ccccc5)c(S(=O)(=O)C(F)(F)F)c4)cc3)CC2)C1 [Navitoclax] (partner 0.5 µM)
Procedure, shortened: (§1)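 One day after seeding in 1536-well plates, lung cancer cell lines were dosed by pin tool. Dosing was either single-drug or a fixed anchor-drug dose plus five library-drug doses (not always all listed) in √10 steps. After 5 days, nuclei were stained in one fix-and-stain step and counted on 4× images, and relative viability is the nuclei count of treated wells over that of vehicle wells, given as the median of duplicate plates.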

MLN4924 + Tozasertib = compound: NS(=O)(=O)OC[C@@H]1C[C@@H](n2ccc3c(N[C@H]4CCc5ccccc54)ncnc32)C[C@@H]1O [MLN4924] + Cc1cc(Nc2cc(N3CCN(C)CC3)nc(Sc3ccc(NC(=O)C4CC4)cc3)n2)n[nH]1 [Tozasertib] (partner 0.1 µM)
Procedure, shortened: as §1

MLN4924 + Alpelisib = compound: NS(=O)(=O)OC[C@@H]1C[C@@H](n2ccc3c(N[C@H]4CCc5ccccc54)ncnc32)C[C@@H]1O [MLN4924] + Cc1nc(NC(=O)N2CCC[C@H]2C(N)=O)sc1-c1ccnc(C(C)(C)C(F)(F)F)c1 [Alpelisib] (partner 2 µM)
Procedure, shortened: as §1

MLN4924 + Navitoclax = compound: NS(=O)(=O)OC[C@@H]1C[C@@H](n2ccc3c(N[C@H]4CCc5ccccc54)ncnc32)C[C@@H]1O [MLN4924] + CC1(C)CCC(c2ccc(Cl)cc2)=C(CN2CCN(c3ccc(C(=O)NS(=O)(=O)c4ccc(N[C@H](CCN5CCOCC5)CSc5ccccc5)c(S(=O)(=O)C(F)(F)F)c4)cc3)CC2)C1 [Navitoclax] (partner 0.5 µM)
Procedure, shortened: as §1

Row | Cell Line | relative viability (Carboplatin + Navitoclax; first compound 0.08 µM) | relative viability (Carboplatin + Navitoclax; first compound 0.253 µM) | relative viability (Carboplatin + Navitoclax; first compound 0.8 µM) | relative viability (Carboplatin + Navitoclax; first compound 2.53 µM) | relative viability (Carboplatin + Navitoclax; first compound 8 µM) | relative viability (MLN4924 + Tozasertib; first compound 0.04 µM) | relative viability (MLN4924 + Tozasertib; first compound 0.1265 µM) | relative viability (MLN4924 + Tozasertib; first compound 0.4 µM) | relative viability (MLN4924 + Tozasertib; first compound 1.265 µM) | relative viability (MLN4924 + Tozasertib; first compound 4 µM) | relative viability (MLN4924 + Alpelisib; first compound 0.04 µM) | relative viability (MLN4924 + Alpelisib; first compound 0.1265 µM) | relative viability (MLN4924 + Alpelisib; first compound 0.4 µM) | relative viability (MLN4924 + Alpelisib; first compound 1.265 µM) | relative viability (MLN4924 + Alpelisib; first compound 4 µM) | relative viability (MLN4924 + Navitoclax; first compound 0.04 µM) | relative viability (MLN4924 + Navitoclax; first compound 0.1265 µM) | relative viability (MLN4924 + Navitoclax; first compound 0.4 µM) | relative viability (MLN4924 + Navitoclax; first compound 1.265 µM) | relative viability (MLN4924 + Navitoclax; first compound 4 µM)
1 | NCI-H2347 | 0.897 | 0.929 | 0.771 | 0.721 | 0.673 | 0.647 | 0.546 | 0.386 | 0.283 | 0.241 | 1.02 | 0.865 | 0.638 | 0.33 | 0.382 | 0.676 | 0.677 | 0.44 | 0.305 | 0.369
2 | NCI-H2405 | 0.869 | 0.862 | 0.639 | 0.629 | 0.62 | 0.802 | 0.644 | 0.484 | 0.231 | 0.266 | 1.02 | 0.933 | 0.517 | 0.196 | 0.215 | 0.874 | 0.702 | 0.273 | 0.13 | 0.171
3 | NCI-H3122 | 1.03 | 0.988 | 1.01 | 1.02 | 0.97 | 0.347 | 0.226 | 0.113 | 0.0963 | 0.103 | 0.799 | 0.452 | 0.251 | 0.188 | 0.133 | 0.929 | 0.448 | 0.262 | 0.171 | 0.164
4 | PC-3 [JPC-3] | 0.85 | 0.78 | 0.83 | 0.717 | 0.725 | 0.903 | 0.785 | 0.652 | 0.366 | 0.275 | 0.996 | 0.963 | 0.896 | 0.327 | 0.266 | 0.785 | 0.788 | 0.66 | 0.321 | 0.419
5 | PC-14 | 0.991 | 0.974 | 0.985 | 0.918 | 0.566 | 0.592 | 0.569 | 0.605 | 0.177 | 0.0608 | 0.929 | 0.904 | 0.826 | 0.177 | 0.0924 | 0.997 | 0.788 | 0.593 | 0.13 | 0.0891
6 | RERF-LC-KJ | 1.29 | 0.739 | 0.822 | 0.915 | 0.652 | 0.471 | 0.366 | 0.193 | 0.202 | 0.201 | 0.89 | 0.815 | 0.206 | 0.183 | 0.237 | 0.855 | 0.569 | 0.229 | 0.177 | 0.209
7 | SK-LU-1 | 0.824 | 0.774 | 0.946 | 0.872 | 0.387 | 0.356 | 0.295 | 0.171 | 0.0898 | 0.111 | 1.1 | 0.572 | 0.281 | 0.145 | 0.194 | 0.737 | 0.618 | 0.175 | 0.127 | 0.167
8 | SK-MES-1 | 1.13 | 1.3 | 1.2 | 1.21 | 1.16 | 0.773 | 0.682 | 0.33 | 0.157 | 0.189 | 0.99 | 0.882 | 0.87 | 0.232 | 0.185 | 1.04 | 1.04 | 0.62 | 0.199 | 0.166
9 | SW 1573 | 0.91 | 1.03 | 0.922 | 1.1 | 0.543 | 0.235 | 0.207 | 0.0978 | 0.0941 | 0.0688 | 1.01 | 0.974 | 0.957 | 0.155 | 0.0628 | 0.887 | 1.12 | 0.439 | 0.0613 | 0.0532
